Activity, Ratio and Drug uptake data for one molecule are collected here from ChEMBL document CHEMBL1142181, “Quantitative immunoassay to measure plasma and intracellular atazanavir levels: analysis of drug accumulation in cultured T cells” (Antimicrob Agents Chemother, 2007).

Common to all, as to format: ADME, cell-based
A short description of data set [1]: Increase in accumulation of the drug in CEM CCL19 cells in presence of 24 uM Efavirenz relative to control. As to conditions: human, ccrf-cem.
The test system of data set [2] is PBMC. Nature of the data set: Ratio of intracellular drug level to extracellular drug level in human PBMC at 20 ug/ml after 24 hrs.
The nature of data set [3]: Increase in accumulation of the drug in CEM CCL19 cells in presence of 50 uM Probenecid relative to control. The conditions noted are these: human, ccrf-cem.
Data set [4] can be described thus: Intracellular drug level in CEM CCL19 cells at 20 ug/ml after 24 hrs. The conditions noted are these: human, ccrf-cem.
Data set [5] in a line: Increase in accumulation of the drug in CEM CCL19 cells in presence of 50 uM Verapamil relative to control. As to conditions: human, ccrf-cem.
Data set [6] is described as follows: Intracellular drug level in CEM CCL19 cells at 0.2 ug/ml after 24 hrs. As to conditions: human, ccrf-cem.
Data set [7] can be described thus: Ratio of intracellular drug level to extracellular drug level in CEM CCL19 cells at 20 ug/ml after 24 hrs. As to conditions: human, ccrf-cem.
Data set [8] relates to PBMC. Kind of data set: Intracellular drug level in human PBMC at 2 ug/ml after 24 hrs.
The nature of data set [9]: Increase in accumulation of the drug in CEM CCL19 cells in presence of 50 uM Dipyridamole relative to control. The conditions noted are these: human, ccrf-cem.
Data set [10] is described as follows: Ratio of intracellular drug level to extracellular drug level in CEM CCL19 cells at 0.2 ug/ml after 24 hrs. The conditions noted are these: human, ccrf-cem.
Data set [11] deals with PBMC. Kind of data set: Intracellular drug level in human PBMC at 0.2 ug/ml after 24 hrs.
Data set [12] can be described thus: Intracellular drug level in CEM CCL19 cells at 2 ug/ml after 24 hrs. As to conditions: human, ccrf-cem.
Data set [13] relates to PBMC. Nature of the data set: Ratio of intracellular drug level to extracellular drug level in human PBMC at 2 ug/ml after 24 hrs.
Data set [14] in a line: Ratio of intracellular drug level to extracellular drug level in CEM CCL19 cells at 2 ug/ml after 24 hrs. The conditions noted are these: human, ccrf-cem.
Data set [15] deals with PBMC. Kind of data set: Ratio of intracellular drug level to extracellular drug level in human PBMC at 0.2 ug/ml after 24 hrs.
Data set [16] can be described thus: Decrease in accumulation of the drug in CEM CCL19 cells in presence of 28 uM Nevirapine relative to control. Further details: scale not given: the % may be the effect or the level left. As to conditions: human, ccrf-cem.
The test system of data set [17] is PBMC. Nature of the data set: Intracellular drug level in human PBMC at 20 ug/ml after 24 hrs.

For `COC(=O)N[C@H](C(=O)N[C@@H](Cc1ccccc1)[C@@H](O)CN(Cc1ccc(-c2ccccn2)cc1)NC(=O)[C@@H](NC(=O)OC)C(C)(C)C)C(C)(C)C` [ATAZANAVIR], the Activity was 125% in data set [1]; 25% in [3]; 70% in data set [5]; 125% in data set [9]; 50% in data set [16]. Further, the Ratio is 0.602 in the data set on PBMC [2]; 0.04 in data set [7]; 0.44 in data set [10]; 2.7 with PBMC [13]; 0.1 in data set [14]; 19.2 with PBMC [15]. The Drug uptake amounted to 0.8423 µg/mL in [4]; 0.0887 µg/mL in data set [6]; 5.409 µg/mL in the data set on PBMC [8]; 3.838 µg/mL in the data set with PBMC [11]; 0.2049 µg/mL in data set [12]; 12.048 µg/mL in the data set with PBMC [17].
